Tests used:
[1] = Absorbance measurements (UV-Vis); settings: for Absorbance Wavelength: ACN:PBS buffer (50:50 v/v); for λabs, maximum absorption wavelength: absence of αS PFFs (−), dye 10 μM; for λabs: ACN/PBS
Procedure: Samples were individually diluted to the final concentration of 25 μM (500 μL) using 50:50 acetonitrile in phosphate buffered saline (ACN/PBS). The absorbance spectrum of each derivative (150 μL) was measured on a Thermo Scientific Genesys 150 UV-Vis spectrometer, using 50:50 ACN/PBS as a blank.

[2] = Molar absorptivity determination; type: physicochemical; settings: for E, molar absorptivity (ε): absence of αS PFFs (−), measured at λabs;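 as to all read-outs here: molar absorptivity derived from UV-Vis absorbance spectra recorded for each derivative on a spectrometer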
Procedure: The absorbance spectrum of each derivative (150 μL) was measured on a Thermo Scientific Genesys 150 UV-Vis spectrometer, using 50:50 ACN/PBS as a blank.
Molar absorptivity determination. […] The absorbance spectrum of each derivative (150 μL) was measured on a Thermo Scientific Genesys 150 UV-Vis spectrometer, using 50:50 ACN/PBS as a blank.

[3] = Fluorescent quantum yield (QY) measurements; type: physicochemical; settings: for Fluorescence QY: ACN/PBS buffer (1:1 v/v); for Fluorescence quantum yield / QY: in ACN
Outline: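 Fluorescence quantum yield was measured for each dye by first recording the incident excitation light spectrum with 1 mL of solvent. JASCO Quantum Yield Software then computed QY as the dye's fluorescence intensity divided by the drop in incident light intensity between dye-absent and dye-present samples. A full incident excitation spectrum with this setup needs an excitation wavelength of at least 360 nm.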

αS fibrils [4] = target: T1, αS fibrils (Homo sapiens, UniProt P37840); assay: Excitation spectra with αS fibrils; type: physicochemical; settings: dye 10 μM; for λex: presence of αS PFFs, PFF 50 μM; for λex, maximum excitation wavelength: presence of αS PFFs (+), PFFs 50 μM, represents the bound form of dye
T1 construct: intein-His6 (C, cleaved yes); made in house; host or cells: Escherichia coli BL21
Procedure: Excitation spectral measurements were performed using a PTI QuantaMaster™ 40 fluorescence spectrometer. Excitation spectra of 10 μM probes (concentrated stock solution prepared as 10 mM in DMSO) (7j, 7k, 7l, and 7m) in PBS buffer were measured in the absence and presence of 50 μM αS fibrils (stock solution 100 μM αS fibrils in PBS buffer).
Excitation spectra with αS fibrils. Excitation spectral measurements were performed using a PTI QuantaMaster 40 fluorescence spectrometer. Excitation spectra of 10 μM probes (concentrated stock solution prepared as 10 mM in DMSO) (5j and 5k) in PBS buffer were measured in the absence and presence of 50 μM αS fibrils (stock solution 100 μM αS fibrils in PBS buffer).

αS fibrils [5] = target: T1, αS fibrils; assay: Probe binding (Kd) measurements with αS fibrils; settings: 100 μM αS PFFs; probe 10 nM-10 μM
Procedure: (§1) αS fibrils (100 μM) in PBS buffer were incubated with varying 7k, 7l, and 7m concentrations (0, 0.01, 0.1, 0.5, 1, 3, 5, 7, and 10 μM) from concentrated 10 mM DMSO stock solutions in Greiner 96 well flat black […] plates at 37° C. with shaking at 500 rpm for 15 min in an IKA MS3 control orbital shaker (Wilmington, NC, USA). After 15 min incubation, fluorescence intensity measurements were obtained with a Tecan Spark plate reader (Mannedorf, Switzerland) by excitation with λex/λem=424/570 nm for 7k, λex/λem=463/580 nm for 7l, and λex/λem=484/620 nm for 7m, using the following parameters: excitation and emission bandwidth 5 nm, delay time 0 μs, integration time 40 μs. Averages and standard deviations were calculated from at least 3 independent measurements at each probe concentration. The resulting binding curve was fit to the following equation (modified from the One site—Total, accounting for ligand depletion model) in Graphpad Prism 9 (San Diego, CA, USA), from which the Kd was determined.
Fluorescence Spectra with αS Fibrils
as §1, with “5k” for “7k, 7l, and 7m”, “with” for “with λex/λem=424/570 nm for 7k,”, “5k,” for “7l, and λex/λem=484/620 nm for 7m,”

[6] = Solvatochromic measurements; type: physicochemical; settings: organic solvents of different polarity
Procedure: The remaining 850 μL solution was used to obtain fluorescence images under a handheld 365 nm UV lamp.
Solvatochromic measurements. […] The remaining 850 μL solution was used to obtain fluorescence images under a handheld 365 nm UV lamp.

[7] = test system: αS fibrils versus tau fibrils; assay: Amyloid selectivity by plate reader, αS versus tau fibrils; type: binding; parameters: fluorescence turn-on with αS relative to tau: dose or concentration left out as unconfirmed; settings: for fluorescence turn on with αS relative to tau: 5 μM fibril concentrations, probe 1 μM
Procedure: Experiments were performed on the Tecan Spark in Greiner 96 well flat black ½ area plates using the following parameters: excitation and emission band widths 5 nm, lag time 0 μs, integration time 40 μs. A 10 mM DMSO stock solution of probes (7j-7m) and 100 μM stock of αS fibrils were used in the study described herein.

[8] = 25 μM in ACN/PBS buffer (1:1 v/v), pH 7.4
[9] = ACN/PBS buffer (1:1 v/v), pH 7.4
[10] = in ACN, at maximum absorption wavelength

Row | Absorbance λmax ([1]; 25 μM in ACN) [nm] | Absorbance λmax [1, 8] [nm] | Molar Absorptivity (ε) [2, 9] [M⁻¹ cm⁻¹] | Molar Absorptivity (ε) [2, 10] [M⁻¹ cm⁻¹] | Fluorescence QY [3] [%] | Fluorescence quantum yield [3] [%] | QY [3] | λex (αS fibrils [4]) [nm] | Kd (αS fibrils [5]) [nM] | emission span across solvents (solvatochromism) [6] | Absorbance Wavelength ([1]; Table S14) [nm] | λabs, maximum absorption wavelength [1] [nm] | E, molar absorptivity (ε) [2] [M⁻¹ cm⁻¹] | Fluorescence quantum yield ([3]; Table S12) [%] | λex, maximum excitation wavelength (αS fibrils [4]) [nm] | solvatochromism / environmental sensitivity [6] | λabs [1] [nm] | Structure (SMILES) | fluorescence turn on with αS relative to tau [7] [fold] | also measured
1 | 378 | 386 | 29562 | 28890 | 1.0 | 6.9 | about 7% | 424 | 2450 ± 1240 | 490-590 nm | – | – | – | – | – | – | – | Cc1c(C)n2c(/C=C/c3ccc(N4CCOCC4)cc3)c(C)c(=O)n2c1=O [Compound 7k, (E)-2,3,6-trimethyl-5-(4-morpholinostyryl)-1H,7H-pyrazolo[1,2-a]pyrazole-1,7-dione] | 2 | –
2 | 378 | 385 | 30834 | 32091 | 0.7 | 1.5 | 2% | 435 | – | – | 385 | 372 | 15385 | 1.5 | 435 | showed sensitivity to solvent polarity | – | Cc1c(C)n2c(/C=C/c3ccc(N)cc3)c(C)c(=O)n2c1=O [Compound 7j, (E)-3-(4-aminostyryl)-2,5,6-trimethyl-1H,7H-pyrazolo[1,2-a]pyrazole-1,7-dione] | – | –
3 | 402 | 418 | 30420 | 24742 | 0.5 | 7.5 | about 7% | 463 | 1450 ± 430 | 490-590 nm | 418 | 393 | 20071 | 7.5 | 463 | high level of solvatochromism | 418 | Cc1c(C)n2c(/C=C/c3ccc(N(C)C)cc3)c(C)c(=O)n2c1=O [Compound 7l, (E)-3-(4-(dimethylamino)styryl)-2,5,6-trimethyl-1H,7H-pyrazolo[1,2-a]pyrazole-1,7-dione] | 2 | QY ([3]; listed as 5k): 7.5%; fluorescence turn-on with αS relative to tau [7]: 2.8 fold
4 | 410 | 436 | 36689 | 28639 | 0.6 | 13.5 | 14% | 484 | 420 ± 250 | – | – | – | – | – | – | high levels of solvatochromism | 436 | Cc1c(C)n2c(/C=C/C=C/c3ccc(N(C)C)cc3)c(C)c(=O)n2c1=O [Compound 7m, 3-((1E,3E)-4-(4-(dimethylamino)phenyl)buta-1,3-dien-1-yl)-2,5,6-trimethyl-1H,7H-pyrazolo[1,2-a]pyrazole-1,7-dione] | 9 | Absorbance Wavelength ([1]; Table 11): 418 nm

Reference: US20240336617A1, “Substituted Bimane Compounds and Methods of Use Thereof” (THE TRUSTEES OF THE UNIVERSITY OF PENNSYLVANIA, priority 2023, published 2024)
